# From patent US9446015B2, “Quinone based nitric oxide donating compounds for ophthalmic use” (NICOX SCIENCE IRELAND, priority 2012, dated 2016)
# Assays:
# [1] = system: rat L-NAME-induced hypertension; test: In vivo tolerance evaluation, L-NAME-induced hypertension after 5-day oral treatment; details: 5-ISMN 30 mg/kg, compound (6) 100 mg/kg
# Procedure: (§1) Fasted male SD rats (250-300 g, n=3-5 per group), obtained from Harlan Italy (Correzzana, Milan, Italy) were orally treated with tested compounds or vehicle (DMSO:Methocel 1% 2/98 v/v) in a total volume of 4 ml/kg by gavage. At each time point (1, 3, 6 and 24 h) animals were deeply anesthetized with Zoletil® 100 (3 mg/kg), given intramuscularly. Thereafter, a pressure catheter (Samba Sensors, Harvard Apparatus, UK) was introduced into the common carotid artery for central blood pressure measurement. Pressure transducer was connected to a personal computer, in order to allow real time monitor of the pressure tracing. After 10 minutes of basal recording, L-NAME (50 mg/kg) was administered intraperitoneally and the effect on SBP monitored. When the SBP stabilized (5 minutes without variations) the recording was stopped. To further confirm that functional activity was NO-dependent, at each time point blood ^15N-nitrite levels were measured following the procedure described in Example 12.
# To investigate whether the compound (6) induced nitrate tolerance, as observed for most of the drugs belonging to the nitrate class, the L-NAME-induced hypertension rat model described in Example 7 was performed following a repeated oral treatment. Rats were orally treated for 5 days with vehicle, compound (6) (100 mg/kg) or 5-ISMN (30 mg/kg). […] The experiments were performed at the peak effect (1 hour for 5-ISMN and 3 hours for Compound (6)), results are reported in Table 3.
# [2] = system: lipidic peroxidation of membrane lipids in rat hepatocytes (hepatic microsomal membranes); test: In vitro antioxidant activity (TBARS test); type: biochemical; details: Method A (ADP-FeCl3 and NADPH); inhibition of TBARS production after 30 min; read-out: Antioxidant activity IC50 μM (CL 95%)
# Procedure: The antioxidant properties of compounds (6) (disclosed in example 1) and compound (23) (disclosed in example 19) and reference antioxidant compounds were assessed after NADPH-induced lipidic peroxidation of membrane lipids in rat hepatocytes using the detection of 2-thiobarbituric acid reactive substances (TBARS) by visible spectroscopy.
# Hepatic microsomal membranes from male Wistar rats (200-250 g) were prepared by differential centrifugation (8000 g, 20 min; 120000 g, 1 h) in a HEPES/sucrose buffer (10 mM, 250 mM, pH 7.4) and stored at −80° C. Incubation was performed at 37° C. in a Tris-HCl/KCl (100 mM/150 mM, pH 7.4) containing microsomal membranes (2 mg prot/mL), sodium ascorbate (100 μM), and DMSO solutions of the tested compounds. Lipid peroxidation was initiated by adding ADP-FeCl3 and NADPH (Method A) or 2.5 μM FeSO4 (Method B) (as described by Boschi D. et al., J. Med. Chem. 2006, 49:2886-2897). Aliquots were taken from the incubation mixture at 5, 15, and 30 min and treated with trichloroacetic acid (TCA) 10% w/v. Lipid peroxidation was assessed by spectrophotometric (543 nm) determination of the TBARS consisting mainly of malondialdehyde (MDA). TBARS concentrations (expressed in nmol/mg protein) were obtained by interpolation with a MDA standard curve. The antioxidant activity of tested compounds was evaluated as the percent inhibition of TBARS production with respect to control samples, using the values obtained after 30 min of incubation. IC50 values were calculated by nonlinear regression analysis.
# [3] = system: rat L-NAME-induced hypertension; test: Systolic blood pressure in rat L-NAME-induced hypertension, single oral dose; type: in vivo; details: Comp. (6) 100 mg/kg oral; 3 hours
# Procedure: To assess the in vivo NO-dependent activity, Compound (6) was evaluated for systolic blood pressure (SBP) reduction efficacy in a rat model of NO-deprivation induced by L-NAME and compared with 5-ISMN.
# as §1
# [4] = system: isolated aortas from rats; test: Ex vivo tolerance evaluation, vascular response of isolated rat aortas; type: cell-based; details: 5-day oral treatment; 5-ISMN 30 mg/kg, Compound (6) 100 mg/kg
# Procedure: Thoracic aortas from male New Zealand rabbits or male Sprague Dawley (SD) were used. The aortas were placed immediately in Krebs-HEPES buffer (pH 7.4; composition mM: NaCl 130.0, KCl 3.7, NaHCO3 14.9, KH2PO4 1.2, MgSO4.7H2O 1.2, Glucose 11.0, HEPES 10.0, CaCl2.2H2O 1.6). Connective tissue was removed and aortas were cut into ring segments (4-5 mm in length). Each ring was placed in a 5 mL tissue bath filled with Krebs-HEPES buffer (37° C.) aerated with 95% O2 and 5% CO2 and was attached to a force transducer (Grass FT03), connected to a BIOPAC MP150 System for measurement of the isometric tension. Preparations were allowed to equilibrate for 1 h at a resting tension of 2 g for rabbit aortas and 1 g for rat aortas with changes of the buffer every 15 min. Then the rings were stimulated by exposure to 90 mM KCl (3 times) with intervening washings.
# Rat aorta. After equilibration, rat aortas were precontracted with KCl (90 mM) and, when the contraction was stable, a cumulative concentration-response curve to acetylcholine (ACh, 0.01-100 μM) was added. After washout, the rings were precontracted again with KCl (90 mM). When a steady-state level of contraction was obtained, a cumulative concentration-response curve to the tested compounds (0.01-100 μM) was obtained.
# Data analysis. Results are given as mean±SEM. Vascular responses are expressed as percentage relaxation and plotted vs concentration. The sensitivity of isolated aorta to different vasodilators is expressed as the concentration that elicited 50% of the maximal responses (EC50). Responses are quantified in terms of EC50 and Emax (maximal vasodilating effect) values, obtained from the concentration-response curve by nonlinear curve fitting, using GraphPad software.
# Tolerance to nitrate was further investigated assessing the vascular effects of Compound (6) following repeated treatment compared with 5-ISMN. The vascular response to the compound itself was assessed on isolated aortas from rats orally treated for 5 days with Compound (6) (100 mg/kg). The vascular response was performed as described in Example 6.
# Vascular responses were performed 1 h (ISMN) or 3 h (Compound (6)) after the last administration, the concentrations of tested compound that elicited the 50% of the maximal responses (EC50) are shown in Table 4.
compound,measurement,setting,value
"COC1=C(OC)C(=O)C(CCCCCCCCCCO[N+](=O)[O-])=C(C)C1=O [Compound (6), 10-(4,5-dimethoxy-2-methyl-3,6-dioxocyclohexa-1,4-dienyl)decyl nitrate]",efficacy in preventing L-NAME-induced hypertension after 5-day oral treatment,[1],counteracted L-NAME-induced hypertension
same,IC50,[2],2 µM
same,"Delta vs basal (mmHg), systolic blood pressure",[3],14 ± 3.8 mmHg
same,vascular sensitivity of aortas of treated animals to the compound itself versus vehicle/control arteries,[4],showed the same sensitivity
